Tested on: 128128-338-R-J1-PDC spheroids, viability % test/control
Test: Anticancer human tumor 128128-338-R-J1-PDC patient-derived melanoma cell line growth inhibition [TAK]
Settings: spheroids with HUVEC and MSC; for IC50: curve of first compound; for viability, T/C: stronger effect = lower value
Text: Combinatorial screen of targeted agents with TAK-243 and ipatasertib in multi-cell type tumor spheroids
A high-throughput screen of multi-cell type tumor spheroids was designed to identify active combinations of targeted small molecules and TAK-243 or ipatasertib. Complex spheroids include a stromal component modeled by human endothelial cells (HUVEC) and fibroblasts modeled by human mesenchymal stem cells (MSCs). The concentration ranges selected for each drug and investigational agent were based upon clinically achievable concentrations if the clinical Cmax of the agent was known.
Compounds. The drugs and investigational agents: TAK-243 (785004), ipatasertib (767898), everolimus (733504), selumetinib (741078), bortezomib (756655), trametinib (758246), ixazomib (758254), vemurafenib (761431), dabrafenib (764134), sapanisertib (764658), alpelisib (765974), and copanlisib (816437), were obtained from the National Cancer Institute (NCI) Developmental Therapeutics Program Chemical Repository. The FDA-approved anticancer drug set is available from the NCI Developmental Therapeutics Program. […] The stock solutions were prepared in dimethyl sulfoxide (DMSO, Sigma-Aldrich, St. Louis, MO, cat. D2650) at 800-fold the tested concentration and stored at -70 degrees C prior to their use. All drugs and investigational agents were tested over a range starting from a high concentration at or near the clinical Cmax and decreasing in half-log increments. If the clinical Cmax for an agent had not been determined, the highest concentration tested was 10 microM.
NCI60 Cell Culture. NCI60 cell lines were obtained from the NCI Developmental Therapeutics Program Tumor Repository. For each lot of cells, the Repository performed Applied Biosystems AmpFLSTR Identifiler testing with PCR amplification to confirm consistency with the published Identifier STR profile for each cell line. Cells were kept in continuous culture for no more than 20 passages. The optimal seeding densities for each of the cell lines at each time point assessed were determined prior to performing the concentration response studies. Briefly, the NCI60 human tumor lines were grown as monolayers in RPMI 1640 medium supplemented with 10% FBS and 2 mmol/L L-glutamine.
An additional 2 lines were from the NCI60 cell line panel including melanomas, MALME-3M and SK-MEL-2. Pooled donor human umbilical vein endothelial cells (HUVEC, Lonza, cat. CC-2519) and human mesenchymal stem cells (hMSC, Lonza, cat. PT-2501) were purchased from Lonza (Walkersville, MD).
PDMR cell lines were grown in complete medium (DC medium): Dulbecco's modified Eagle's medium (DMEM)/F12 supplemented with 5% fetal bovine serum (FBS), 2 mM L-glutamine, 100 U/mL penicillin and 100 µg/ml streptomycin, 0.4 µg/ml hydrocortisone, 10 ng/ml epidermal growth factor (EGF) recombinant human protein, 24 µg/mL adenine, and 0.1 mg/mL primocin. During culture from frozen stock vials, PDMR cells were cultured in the same medium containing 10 µM Y-27632 (see Table 3). The PDCs were cultured in complete DMEM/F12 media without 10 microM Y-27632 dihydrochloride for at least two passages prior to the screen. The pooled donor HUVEC and hMSC were cultured in endothelial cell growth medium 2 (PromoCell, Heidelberg, Germany, cat. C-22011) and mesenchymal stem cell growth medium 2 (PromoCell, cat. C-28009), respectively. For all experiments, HUVEC and hMSC were used at passages </=5.
For the pre-screen, cell seeding densities were determined from a titration spanning the range from 5,000 to 313 cells per well. The mct-spheroids including 60% malignant cells, 25% HUVEC and 15% MSC dispensed as a mixture into U-bottom Ultra-Low Attachment 384-well plates (Corning, NY)
High-throughput Drug Combination Screening.
Prior to their inoculation into 384-well plates, malignant cells, HUVEC, and hMSC were removed from T flasks using TrypLE express (Thermo Fisher Scientific, cat. 12605036) and harvested by centrifugation for 5 min at 233 x g. […]
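Also: spheroids exposed to compounds for 7 days.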
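For viability, T/C in this document: 100% = DMSO vehicle wells.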

CC(C)CC(NC(=O)C(Cc1ccccc1)NC(=O)c1cnccn1)B(O)O (stereo not given) + CC(C)NCC(C(=O)N1CCN(c2ncnc3c2C(C)CC3O)CC1)c1ccc(Cl)cc1
IC50 (second compound 0.3 µM): 1.8 nM
IC50 (second compound 0.949 µM): 1.82 nM
IC50 (second compound 3 µM): 1.64 nM
IC50 (second compound 9.49 µM): 1.22 nM
IC50 (second compound 30 µM): < 0.0316 nM
viability, T/C (second compound 0.3 µM, first compound 31.6 pM): 102%
viability, T/C (second compound 0.3 µM, first compound 0.0001 µM): 102%
viability, T/C (second compound 0.3 µM, first compound 0.000316 µM): 96.1%
viability, T/C (second compound 0.3 µM, first compound 0.001 µM): 97.3%
viability, T/C (second compound 0.3 µM, first compound 0.00316 µM): 4.43%
viability, T/C (second compound 0.3 µM, first compound 0.01 µM): 0.08%
viability, T/C (second compound 0.949 µM, first compound 31.6 pM): 102%
viability, T/C (second compound 0.949 µM, first compound 0.0001 µM): 108%
viability, T/C (second compound 0.949 µM, first compound 0.000316 µM): 109%
viability, T/C (second compound 0.949 µM, first compound 0.001 µM): 101%
viability, T/C (second compound 0.949 µM, first compound 0.00316 µM): 2.86%
viability, T/C (second compound 0.949 µM, first compound 0.01 µM): 0.1%
viability, T/C (second compound 3 µM, first compound 31.6 pM): 84%
viability, T/C (second compound 3 µM, first compound 0.0001 µM): 87.6%
viability, T/C (second compound 3 µM, first compound 0.000316 µM): 90.9%
viability, T/C (second compound 3 µM, first compound 0.001 µM): 83.1%
viability, T/C (second compound 3 µM, first compound 0.00316 µM): 6.23%
viability, T/C (second compound 3 µM, first compound 0.01 µM): 0.05%
viability, T/C (second compound 9.49 µM, first compound 31.6 pM): 66.8%
viability, T/C (second compound 9.49 µM, first compound 0.0001 µM): 71%
viability, T/C (second compound 9.49 µM, first compound 0.000316 µM): 72.5%
viability, T/C (second compound 9.49 µM, first compound 0.001 µM): 60%
viability, T/C (second compound 9.49 µM, first compound 0.00316 µM): 1.26%
viability, T/C (second compound 9.49 µM, first compound 0.01 µM): 0.08%
viability, T/C (second compound 30 µM, first compound 31.6 pM): 21.8%
viability, T/C (second compound 30 µM, first compound 0.0001 µM): 21.8%
viability, T/C (second compound 30 µM, first compound 0.000316 µM): 23.7%
viability, T/C (second compound 30 µM, first compound 0.001 µM): 22%
viability, T/C (second compound 30 µM, first compound 0.00316 µM): 0.38%
viability, T/C (second compound 30 µM, first compound 0.01 µM): 0.13%

Cn1cnc2c(F)c(Nc3ccc(Br)cc3Cl)c(C(=O)NOCCO)cc21 + CC(C)NCC(C(=O)N1CCN(c2ncnc3c2C(C)CC3O)CC1)c1ccc(Cl)cc1
IC50 (second compound 0.3 µM): 91.3 nM
IC50 (second compound 0.949 µM): 77.9 nM
IC50 (second compound 3 µM): 54.8 nM
IC50 (second compound 9.49 µM): 15.1 nM
IC50 (second compound 30 µM): < 9.49 nM
viability, T/C (second compound 0.3 µM, first compound 0.00949 µM): 92.9%
viability, T/C (second compound 0.3 µM, first compound 0.03 µM): 83.4%
viability, T/C (second compound 0.3 µM, first compound 0.0949 µM): 48.7%
viability, T/C (second compound 0.3 µM, first compound 0.3 µM): 13.6%
viability, T/C (second compound 0.3 µM, first compound 0.949 µM): 1.29%
viability, T/C (second compound 0.3 µM, first compound 3 µM): 1.54%
viability, T/C (second compound 0.949 µM, first compound 0.00949 µM): 85.7%
viability, T/C (second compound 0.949 µM, first compound 0.03 µM): 76.6%
viability, T/C (second compound 0.949 µM, first compound 0.0949 µM): 45%
viability, T/C (second compound 0.949 µM, first compound 0.3 µM): 3.97%
viability, T/C (second compound 0.949 µM, first compound 0.949 µM): 0.63%
viability, T/C (second compound 0.949 µM, first compound 3 µM): 0.7%
viability, T/C (second compound 3 µM, first compound 0.00949 µM): 77%
viability, T/C (second compound 3 µM, first compound 0.03 µM): 76.2%
viability, T/C (second compound 3 µM, first compound 0.0949 µM): 26.3%
viability, T/C (second compound 3 µM, first compound 0.3 µM): 1.91%
viability, T/C (second compound 3 µM, first compound 0.949 µM): 0.35%
viability, T/C (second compound 3 µM, first compound 3 µM): 0.16%
viability, T/C (second compound 9.49 µM, first compound 0.00949 µM): 63%
viability, T/C (second compound 9.49 µM, first compound 0.03 µM): 30.6%
viability, T/C (second compound 9.49 µM, first compound 0.0949 µM): 10.7%
viability, T/C (second compound 9.49 µM, first compound 0.3 µM): 0.42%
viability, T/C (second compound 9.49 µM, first compound 0.949 µM): 0.35%
viability, T/C (second compound 9.49 µM, first compound 3 µM): 0.17%
viability, T/C (second compound 30 µM, first compound 0.00949 µM): 16.7%
viability, T/C (second compound 30 µM, first compound 0.03 µM): 4.78%
viability, T/C (second compound 30 µM, first compound 0.0949 µM): 0.34%
viability, T/C (second compound 30 µM, first compound 0.3 µM): 0.25%
viability, T/C (second compound 30 µM, first compound 0.949 µM): 0.15%
viability, T/C (second compound 30 µM, first compound 3 µM): 0.13%

Reference: PubChem BioAssay AID2060362 (Molecular Pharmacology Branch, DTP, NCI, 2025)
